Common to all, as to assay type: cell-based
The target of assay [1] is T1, EML4-ALK-BaF3 (Homo sapiens, UniProt Q9UM73).
T1 construct: expressed in transfected cells; host or cells: Ba/F3 cells; the other entry of the earlier key: EML4 (Q9HC35, Echinoderm microtubule-associated protein-like 4)
The assay can be described thus: Growth inhibition of EML4-ALK transformed BaF3 cells (MTS). Particulars: EML4-ALK-BaF3 cells, 48 hours, MTS; Table 11. Summed up: (§1)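 Ba/F3 cells (2×10^4/well) in DMEM or RPMI1640 with 10% FBS exposed to 8 compound concentrations (top 10 μM, 1/3 serial dilution, 0.1% DMSO) for 48 h at 37 °C, 5% CO2. Viability by MTS/PES, 1-4 h, OD 490 nm; triplicates. IC50 fitted from inhibition rate.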

In assay [2] the target is T2, EML4-ALK (L1196M)-BaF3 (Homo sapiens, UniProt Q9UM73, L1196M).
T2 construct: expressed in transfected cells; host or cells: Ba/F3 cells; the other entry of the earlier key: EML4 (Q9HC35, Echinoderm microtubule-associated protein-like 4)
Kind of assay: Growth inhibition of EML4-ALK (L1196M) transformed BaF3 cells (MTS). Particulars: 48 hours, Table 11, read-out: EML4-ALK (L1196M) (IC50 nM). In short, it runs like this:
as §1

In assay [3] the target is T3, NPM-ALK-BaF3 (Homo sapiens, UniProt Q9UM73).
T3 construct: expressed in transfected cells; host or cells: Ba/F3 cells; the other entry of the earlier key: NPM1 (P06748, Nucleophosmin)
The assay can be described thus: Growth inhibition of NPM-ALK transformed BaF3 cells (MTS). Particulars: 48 hours, Table 11. Summed up:
(§2)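 MTS absorbance at 490 nm, measured 1–4 h after reagent addition, reports growth after 48 h compound exposure (37 °C, 5% CO2) of 2×10^4 cells/well. Eight 1/3-step concentrations from a 10 μM top, 0.1% DMSO; triplicate inhibition relative to vehicle and blank gives IC50.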

Assay [4] relates to wild type BaF3. The assay can be described thus: Growth inhibition of wild type BaF3 cells (broad-spectrum toxicity). The settings on record: Mus musculus, BaF3, 48 h, MTS, Table 11. In short, it runs like this:
as §2

Bounds are passed on as bounds.

As for `CNC(=O)c1ccccc1Nc1nc(Nc2ccc(N3CCC(N4CCN(C)CC4)CC3)cc2OC)nc2cc[nH]c12` [IJ-1], the IC50 turned out to be 4270 nM in assay [1], 3940 nM in assay [2], 4660 nM in assay [3] and 5010 nM in assay [4].

For `CNC(=O)c1ccccc1Nc1nc(Nc2ccc(N3CCC(N4CCCC4)CC3)cc2OC)nc2cc[nH]c12` [IJ-2], the half-maximal inhibitory concentration (IC50) in assay [1] was ~8710 nM; in assay [2] it was 4110 nM; in assay [3], ~8360 nM; in assay [4], ~11700 nM.

On to `CNC(=O)c1ccccc1Nc1nc(Nc2ccc(S(N)(=O)=O)cc2)nc2cc[nH]c12` [IJ-3], for which the IC50 in assay [1], in assay [2], in assay [3] and in assay [4] was > 10000 nM each time.

In the case of `COC(=O)c1sccc1Nc1nc(Nc2ccc(N3CCN(C)CC3)cc2OC)nc2cc[nH]c12` [IK-1], the 50% inhibitory concentration (IC50) in assay [1] is ~2580 nM; in assay [2] it was 1550 nM; in assay [3], 1780 nM; in assay [4], 1820 nM.

Consider `COC(=O)c1sccc1Nc1nc(Nc2ccc(N3CCC(N4CCN(C)CC4)CC3)cc2OC)nc2cc[nH]c12` [IK-2], for which the IC50 was 669 nM in assay [1], 451 nM in assay [2], ~823 nM in assay [3] and ~913 nM in assay [4].

For the compound `COc1cc(N2CCN(C)CC2)ccc1Nc1nc(NCc2ccccc2SC)c2[nH]ccc2n1` [IL-1], the IC50 was 1320 nM in assay [1], 1620 nM in assay [2], ~929 nM in assay [3] and ~2820 nM in assay [4].

With `COc1cc(N2CCC(N3CCN(C)CC3)CC2)ccc1Nc1nc(NCc2ccccc2SC)c2[nH]ccc2n1` [IL-2], the IC50 in assay [1] was ~2570 nM; in assay [2], 2000 nM; in assay [3], ~7720 nM; in assay [4], ~7840 nM.

Consider `CSc1ccccc1CNc1nc(Nc2ccc(N3CCC(O)CC3)cc2)nc2cc[nH]c12` [IL-3], for which the 50% inhibitory concentration (IC50) in assay [1] was 3500 nM; in assay [2], 5020 nM; in assay [3] it was 5180 nM; in assay [4], 5180 nM.

For `CSc1ccccc1CNc1nc(Nc2ccc(S(N)(=O)=O)cc2)nc2cc[nH]c12` [IL-4], the IC50 in assay [1] is 9510 nM; in assay [2], > 10000 nM; in assay [3], > 10000 nM; in assay [4] it was > 10000 nM.

`COc1cc(N2CCN(C)CC2)ccc1Nc1nc(NCc2ccccc2SC(C)C)c2[nH]ccc2n1` [IM-1]: the IC50 in assay [1] is ~300 nM; in assay [2] it was 587 nM; in assay [3], 572 nM; in assay [4] it was ~867 nM.

For the compound `CC(C)Sc1ccccc1CNc1nc(Nc2ccc(N3CCC(O)CC3)cc2)nc2cc[nH]c12` [IM-2], the half-inhibitory concentration (IC50) turned out to be 1240 nM in assay [1], 1310 nM in assay [2], 1620 nM in assay [3] and 2900 nM in assay [4].

Take `CC(C)Sc1ccccc1CNc1nc(Nc2ccc(S(N)(=O)=O)cc2)nc2cc[nH]c12` [IM-3]: the IC50 in assay [1] was 7530 nM; in assay [2], > 10000 nM; in assay [3] it was > 10000 nM; in assay [4], > 10000 nM.

For the compound `COc1cc(N2CCN(C)CC2)ccc1Nc1nc(NCc2ccccc2S(C)(=O)=O)c2[nH]ccc2n1` [IN-1], the IC50 in assay [1], in assay [2], in assay [3] and in assay [4] was > 10000 nM throughout.

For `COc1cc(N2CCC(N3CCN(C)CC3)CC2)ccc1Nc1nc(NCc2ccccc2S(C)(=O)=O)c2[nH]ccc2n1` [IN-2], the IC50 in assay [1], in assay [2], in assay [3] and in assay [4] was > 10000 nM throughout.

In the case of `CS(=O)(=O)c1ccccc1CNc1nc(Nc2ccc(N3CCC(O)CC3)cc2)nc2cc[nH]c12` [IN-3], the IC50 in assay [1], in assay [2], in assay [3] and in assay [4] was > 10000 nM throughout.

Consider `CS(=O)(=O)c1ccccc1CNc1nc(Nc2ccc(S(N)(=O)=O)cc2)nc2cc[nH]c12` [IN-4], for which the IC50 in assay [1], in assay [2], in assay [3] and in assay [4] was > 10000 nM throughout.

Regarding `COc1cc(N2CCN(C)CC2)ccc1Nc1nc(NCc2ccccc2S(=O)(=O)C(C)C)c2[nH]ccc2n1` [IO-1], the IC50 in assay [1] is 1720 nM; in assay [2] it was 3400 nM; in assay [3], 4830 nM; in assay [4] it was 4080 nM.

For the compound `CC(C)S(=O)(=O)c1ccccc1CNc1nc(Nc2ccc(N3CCC(O)CC3)cc2)nc2cc[nH]c12` [IO-3], the IC50 in assay [1], in assay [2], in assay [3] and in assay [4] was > 10000 nM each time.

For the origin of these results see patent US10508118B2, “Pyrimidopyrrole compounds, method for preparing the same, pharmaceutical compositions comprising the same and uses thereof” (Xiamen University, priority 2015, dated 2019).
